Reference: patent US20250281479A1, “TREATMENT OF CAVERNOUS ANGIOMAS WITH A 4-SUBSTITUTED PIPERIDINE DERIVATIVE” (Neurelis, Inc., priority 2024, published 2025)

Key:
CYP2B2 = assay: CYP expression in hepatocyte culture; format: in vitro ADME; conditions: at concentrations as low as 3.2 μM
Procedure: (§1) Exposure to NRL-2017 was similar or greater (up to 5-fold) than that to NRL-1049 in rats when dosed once a day (QD). In monkeys, exposure to NRL-2017 was also greater (up to 33-fold) than that to NRL-1049. When rats were dosed twice a day (BID) for 14 days, there was a decrease in formation of NRL-2017 with exposure to NRL-2017 lower than that of NRL-1049 (ratio as low as 0.06). […] NRL-1049 bound to human serum albumin and human alpha1-acid glycoprotein. […] There was also inhibition of P-glycoprotein (P-gp) (only CACO-2 cells), organic anion transporting polypeptides (OATP) OATP1B1, OATP1B3 and OAT3 (IC50, >100 μM), but no effect on P-gp (MDCK2 cells), breast cancer resistance protein (BCRP), bile salt export pump (BSEP), or MATE2-K. NRL-1049 is a substrate for P-gp, not BCRP. […] This conclusion will be revisited when human pharmacokinetic (PK) data becomes available.

rat hepatocytes = assay: incubation with rat hepatocytes; format: in vitro ADME; conditions: two metabolites formed, NRL-2017 and an N-oxide
Procedure: as §1

[1] = nonclinical pharmacokinetics after a single oral dose; format: in vivo, mice, rats, and monkeys
Procedure: as §1

dog hepatocytes = assay: incubation with dog hepatocytes; format: in vitro ADME
Procedure: as §1

[2] = tissue distribution and excretion; format: in vivo
Procedure: as §1

[3] = first-in-human single ascending dose and food-effect study, safety and tolerability; format: in vivo
From the text: This was a first-in-human, single center, randomized, double-blind, placebo-controlled, single ascending dose (SAD) study, including a food-effect assessment, in healthy male and female subjects. Up to 44 subjects were included in the study.
The study consisted of 4 sequential cohorts of 8 subjects each (6 active and 2 placebo), randomly assigned to receive a single oral dose of NRL-1049 or matching-placebo under fasting state on Day 1 (See Table 2). In each cohort, a sentinel group of 2 subjects (1 active and 1 placebo) were dosed at least 24 hours prior to enrolling the remaining subjects of the cohort, contingent on the safety profile observed during sentinel dosing, as defined by medical judgment.
Subjects were admitted to the clinical research unit (CRU) on Day −1. On Day 1, following an overnight fast, subjects received a single oral dose of their assigned study treatment. Safety, PK, and exploratory biomarker assessments were performed prior to dosing and at assigned time points during study confinement. Subjects were permitted to leave the CRU following the completion of the 48-hour PK postdose sampling and safety assessments. A safety follow-up phone call was performed on Day 8 (±1 day).
Each dose cohort was separated by at least 7 days to review safety by the Data Safety Monitoring Board (DSMB) prior to a decision to proceed with the next higher dose cohort or stop the study.
Furthermore, a food-effect assessment was integrated into Cohort 3, in which a single oral 150 mg dose of NRL-1049 or placebo was administered to 12 subjects (10 active and 2 placebo) under fed state in Period 2 (refer to schedule of food-effect Cohort 3 in Table 3). After completion of Period 1 and a washout period of at least 14 days, Cohort 3 subjects repeated the screening procedures to ensure they still met the inclusion and exclusion criteria prior to readmission to the CRU for Period 2. Subjects dosed in Period 1 and who returned for Period 2 (a maximum of 6 active and 2 placebo) were administered the same single oral dose in Period 2 under fed state. In addition, at least 4 new subjects were enrolled in Period 2 only, in order to dose a total of 12 subjects (10 active and 2 placebo), in a 1:1 ratio of male to female. If a subject dosed in Period 1 was unable to return for Period 2, a new subject was enrolled to ensure dosing a total of 12 subjects in Period 2. Newly enrolled subjects only received the study drug in the fed state, and as such were not required to undergo Period 1 activities. There was no sentinel approach in Period 2.
The safety, PK, and exploratory biomarker assessments were performed prior to dosing and at assigned time points during study confinement. For the food-effect cohort, exploratory biomarker samples were collected in both periods. Subjects were discharged from the CRU following the completion of the 48-hour PK postdose sampling and safety assessments. A safety follow-up phone call was performed on Day 23 (±1 day).

[4] = test system: human alpha1-acid glycoprotein; assay: binding to human alpha1-acid glycoprotein; format: in vitro ADME
Procedure: as §1

BCRP = BCRP (Homo sapiens, UniProt Q9UNQ0); assay: transporter substrate assessment; format: in vitro ADME
Sequence of BCRP (Q9UNQ0 whole entry): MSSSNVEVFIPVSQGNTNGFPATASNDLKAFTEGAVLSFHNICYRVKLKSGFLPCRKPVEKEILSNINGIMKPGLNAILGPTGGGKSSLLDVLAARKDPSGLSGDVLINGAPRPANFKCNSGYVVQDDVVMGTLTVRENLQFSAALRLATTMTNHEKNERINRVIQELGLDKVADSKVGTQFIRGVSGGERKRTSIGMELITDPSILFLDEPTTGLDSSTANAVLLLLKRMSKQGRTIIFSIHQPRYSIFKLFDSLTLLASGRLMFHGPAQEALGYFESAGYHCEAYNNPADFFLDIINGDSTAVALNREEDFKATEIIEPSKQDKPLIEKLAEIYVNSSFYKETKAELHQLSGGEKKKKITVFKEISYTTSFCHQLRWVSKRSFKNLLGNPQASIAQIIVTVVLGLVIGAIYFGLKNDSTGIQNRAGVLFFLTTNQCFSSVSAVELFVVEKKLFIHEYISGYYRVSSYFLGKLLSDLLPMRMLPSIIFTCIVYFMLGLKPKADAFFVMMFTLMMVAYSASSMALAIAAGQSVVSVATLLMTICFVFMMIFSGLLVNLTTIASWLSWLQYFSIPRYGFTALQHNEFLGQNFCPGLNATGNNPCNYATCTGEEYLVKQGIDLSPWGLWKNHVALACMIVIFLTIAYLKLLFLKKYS
Procedure: as §1

P-gp = P-gp (Homo sapiens, UniProt P08183); assay: transporter substrate assessment; format: in vitro ADME
Sequence of P-gp (P08183 whole entry): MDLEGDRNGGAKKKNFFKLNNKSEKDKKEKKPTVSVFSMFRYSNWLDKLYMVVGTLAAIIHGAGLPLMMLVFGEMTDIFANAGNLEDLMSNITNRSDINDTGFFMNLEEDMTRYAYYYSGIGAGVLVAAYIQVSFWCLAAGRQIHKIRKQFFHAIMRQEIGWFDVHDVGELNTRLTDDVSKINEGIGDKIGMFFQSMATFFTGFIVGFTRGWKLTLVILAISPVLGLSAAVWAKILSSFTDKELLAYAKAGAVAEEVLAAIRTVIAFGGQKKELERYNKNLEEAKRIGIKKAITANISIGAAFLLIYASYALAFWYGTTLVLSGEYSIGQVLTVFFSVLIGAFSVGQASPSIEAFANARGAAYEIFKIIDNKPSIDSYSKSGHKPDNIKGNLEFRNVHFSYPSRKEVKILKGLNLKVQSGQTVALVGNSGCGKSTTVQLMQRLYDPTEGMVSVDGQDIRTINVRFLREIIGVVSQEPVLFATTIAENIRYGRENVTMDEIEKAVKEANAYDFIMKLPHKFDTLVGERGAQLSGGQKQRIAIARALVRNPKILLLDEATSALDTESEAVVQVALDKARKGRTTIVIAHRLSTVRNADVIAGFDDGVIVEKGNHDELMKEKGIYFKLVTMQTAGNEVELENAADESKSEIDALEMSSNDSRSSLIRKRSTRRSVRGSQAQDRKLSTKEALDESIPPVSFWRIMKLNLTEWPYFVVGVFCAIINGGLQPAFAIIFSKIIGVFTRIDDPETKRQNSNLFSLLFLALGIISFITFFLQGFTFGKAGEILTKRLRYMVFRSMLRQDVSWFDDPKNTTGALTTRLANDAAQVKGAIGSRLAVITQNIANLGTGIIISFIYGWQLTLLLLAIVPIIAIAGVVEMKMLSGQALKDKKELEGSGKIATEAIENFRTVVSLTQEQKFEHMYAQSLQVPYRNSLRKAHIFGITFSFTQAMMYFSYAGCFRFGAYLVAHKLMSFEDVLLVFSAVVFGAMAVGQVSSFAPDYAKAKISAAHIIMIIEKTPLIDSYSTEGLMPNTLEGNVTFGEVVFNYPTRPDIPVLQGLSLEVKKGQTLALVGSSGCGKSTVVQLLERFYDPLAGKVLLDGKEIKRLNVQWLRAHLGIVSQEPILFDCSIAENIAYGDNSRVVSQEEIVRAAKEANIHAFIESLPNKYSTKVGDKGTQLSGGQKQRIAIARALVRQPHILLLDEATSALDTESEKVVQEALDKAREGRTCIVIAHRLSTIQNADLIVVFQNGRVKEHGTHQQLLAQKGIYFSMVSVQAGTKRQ
Procedure: as §1

[5] = molecular target: breast cancer resistance protein (BCRP) (Homo sapiens, UniProt Q9UNQ0); assay: transporter inhibition; format: in vitro ADME
Sequence of breast cancer resistance protein (BCRP) (Q9UNQ0 whole entry): as the sequence (Q9UNQ0 whole entry) above
Procedure: as §1

OAT1 = OAT1 (Homo sapiens, UniProt Q4U2R8); assay: transporter inhibition; format: in vitro ADME; conditions: one range printed for OAT1, OCT1, OCT2 and MATE1 together
Sequence of OAT1 (Q4U2R8 whole entry): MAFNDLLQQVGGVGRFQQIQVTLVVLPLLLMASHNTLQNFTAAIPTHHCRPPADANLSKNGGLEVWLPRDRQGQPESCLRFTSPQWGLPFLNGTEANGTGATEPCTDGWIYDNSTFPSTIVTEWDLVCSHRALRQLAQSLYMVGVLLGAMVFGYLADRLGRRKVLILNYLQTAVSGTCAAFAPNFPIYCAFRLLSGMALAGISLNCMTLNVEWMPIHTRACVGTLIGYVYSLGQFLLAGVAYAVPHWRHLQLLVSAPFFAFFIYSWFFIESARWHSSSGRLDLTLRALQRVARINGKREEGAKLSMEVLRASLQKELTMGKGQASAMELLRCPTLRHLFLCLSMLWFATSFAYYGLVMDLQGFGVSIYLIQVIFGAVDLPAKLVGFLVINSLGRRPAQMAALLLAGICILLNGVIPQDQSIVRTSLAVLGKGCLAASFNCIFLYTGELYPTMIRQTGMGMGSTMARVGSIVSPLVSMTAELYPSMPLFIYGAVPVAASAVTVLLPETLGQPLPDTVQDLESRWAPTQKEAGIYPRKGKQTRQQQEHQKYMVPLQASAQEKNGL
Procedure: as §1

OCT2 = OCT2 (Homo sapiens, UniProt O15244); assay: transporter inhibition; format: in vitro ADME; conditions: one range printed for OAT1, OCT1, OCT2 and MATE1 together
Sequence of OCT2 (O15244 whole entry): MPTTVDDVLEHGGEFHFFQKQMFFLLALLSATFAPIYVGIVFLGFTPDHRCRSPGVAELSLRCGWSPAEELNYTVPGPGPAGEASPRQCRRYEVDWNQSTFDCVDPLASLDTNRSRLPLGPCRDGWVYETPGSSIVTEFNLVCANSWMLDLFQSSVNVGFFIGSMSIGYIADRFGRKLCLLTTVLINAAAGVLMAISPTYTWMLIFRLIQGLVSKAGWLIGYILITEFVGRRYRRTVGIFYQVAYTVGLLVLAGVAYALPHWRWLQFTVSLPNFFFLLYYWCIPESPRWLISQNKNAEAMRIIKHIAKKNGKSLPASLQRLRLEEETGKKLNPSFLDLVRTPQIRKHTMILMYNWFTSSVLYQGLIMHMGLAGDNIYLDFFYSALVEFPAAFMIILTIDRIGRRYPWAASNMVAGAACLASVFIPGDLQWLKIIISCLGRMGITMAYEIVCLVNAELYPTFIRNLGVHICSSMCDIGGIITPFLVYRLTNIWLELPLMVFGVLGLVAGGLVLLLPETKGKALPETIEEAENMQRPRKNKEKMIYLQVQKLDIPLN
Procedure: as §1

P-gp (MDCK2 cells) = molecular target: T1, P-gp (MDCK2 cells) (Homo sapiens, UniProt P08183); assay: transporter inhibition; format: in vitro ADME
T1 construct: host or cells: MDCK2 cells
Procedure: as §1

[6] = molecular target: bile salt export pump (BSEP) (Homo sapiens, UniProt O95342); assay: transporter inhibition; format: in vitro ADME
Sequence of bile salt export pump (BSEP) (O95342 whole entry): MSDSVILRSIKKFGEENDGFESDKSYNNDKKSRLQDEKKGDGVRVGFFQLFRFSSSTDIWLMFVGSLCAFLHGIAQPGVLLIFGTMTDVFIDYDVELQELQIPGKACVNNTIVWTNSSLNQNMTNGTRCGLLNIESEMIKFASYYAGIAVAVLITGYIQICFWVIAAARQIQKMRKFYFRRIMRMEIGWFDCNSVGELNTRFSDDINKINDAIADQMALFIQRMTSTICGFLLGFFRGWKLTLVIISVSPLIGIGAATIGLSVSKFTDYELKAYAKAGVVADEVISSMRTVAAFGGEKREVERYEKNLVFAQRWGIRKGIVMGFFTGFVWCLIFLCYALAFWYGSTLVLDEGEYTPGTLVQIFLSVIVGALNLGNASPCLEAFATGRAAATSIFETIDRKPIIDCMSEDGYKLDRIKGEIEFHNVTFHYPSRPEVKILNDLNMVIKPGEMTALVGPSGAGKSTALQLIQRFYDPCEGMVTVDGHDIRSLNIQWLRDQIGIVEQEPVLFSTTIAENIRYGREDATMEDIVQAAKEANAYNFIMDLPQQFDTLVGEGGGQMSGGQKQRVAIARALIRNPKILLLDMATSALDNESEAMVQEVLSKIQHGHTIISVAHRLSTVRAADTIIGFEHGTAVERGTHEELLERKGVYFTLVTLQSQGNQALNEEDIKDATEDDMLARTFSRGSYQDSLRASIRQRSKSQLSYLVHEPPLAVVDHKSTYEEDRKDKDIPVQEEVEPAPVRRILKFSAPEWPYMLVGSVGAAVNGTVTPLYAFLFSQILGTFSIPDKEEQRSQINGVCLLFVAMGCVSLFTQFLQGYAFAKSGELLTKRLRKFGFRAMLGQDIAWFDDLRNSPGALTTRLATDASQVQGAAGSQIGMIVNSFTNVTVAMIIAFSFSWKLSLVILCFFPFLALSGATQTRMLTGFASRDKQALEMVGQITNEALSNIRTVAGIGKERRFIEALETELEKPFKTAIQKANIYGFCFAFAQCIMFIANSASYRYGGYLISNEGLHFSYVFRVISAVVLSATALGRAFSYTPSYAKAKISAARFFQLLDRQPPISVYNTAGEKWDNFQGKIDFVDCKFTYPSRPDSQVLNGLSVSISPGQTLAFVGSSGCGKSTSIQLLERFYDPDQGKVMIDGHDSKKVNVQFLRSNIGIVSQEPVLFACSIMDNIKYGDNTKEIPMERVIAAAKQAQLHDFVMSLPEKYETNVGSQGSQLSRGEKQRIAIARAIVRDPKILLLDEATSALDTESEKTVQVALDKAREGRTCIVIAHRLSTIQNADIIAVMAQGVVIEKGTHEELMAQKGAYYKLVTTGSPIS
Procedure: as §1

OAT3 = OAT3 (Homo sapiens, UniProt Q8TCC7); assay: transporter inhibition; format: in vitro ADME
Sequence of OAT3 (Q8TCC7 whole entry): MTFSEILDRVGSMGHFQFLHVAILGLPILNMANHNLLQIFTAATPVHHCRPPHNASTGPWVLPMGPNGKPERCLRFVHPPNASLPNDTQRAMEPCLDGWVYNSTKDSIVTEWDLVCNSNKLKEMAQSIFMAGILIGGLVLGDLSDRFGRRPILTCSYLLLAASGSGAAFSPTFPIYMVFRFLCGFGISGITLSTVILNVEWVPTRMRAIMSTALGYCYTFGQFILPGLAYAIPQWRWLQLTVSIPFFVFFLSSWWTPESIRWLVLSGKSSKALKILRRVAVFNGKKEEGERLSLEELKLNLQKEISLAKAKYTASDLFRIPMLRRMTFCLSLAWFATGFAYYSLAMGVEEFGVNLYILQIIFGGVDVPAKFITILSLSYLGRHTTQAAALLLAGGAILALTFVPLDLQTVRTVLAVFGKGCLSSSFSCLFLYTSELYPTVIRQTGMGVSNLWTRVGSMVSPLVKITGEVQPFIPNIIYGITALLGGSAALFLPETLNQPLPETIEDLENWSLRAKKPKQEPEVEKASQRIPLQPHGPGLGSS
Procedure: as §1

human serum albumin = human serum albumin (Homo sapiens, UniProt P02768); assay: binding to human serum albumin; format: in vitro ADME
Procedure: as §1

Question: For `C[C@@H](N)C1CCN(S(=O)(=O)c2cccc3cnccc23)CC1` [NRL-1049], which “reduced expression of CYP2B2” value (CYP2B2) is on record?
Answer: Its value is 0.5 fold.

Question: What about the “clearance rate in hepatocytes” value (rat hepatocytes) of the same compound?
Answer: Its value is “moderate”.

Question: And the exposure versus dose ([1]; in vivo)?
Answer: The exposure versus dose was “greater than dose-proportional”.

Question: And the half-life ([1]; mouse, rat, monkey, plasma, single oral dose of NRL-1049, range over mice, rats, and monkeys, read-out: elimination phase half-life (t½))?
Answer: Its half-life is 0.57 to 6.8 h.

Question: What about the Tmax ([1]; mouse, rat, monkey, plasma, single oral dose of NRL-1049, range over mice, rats, and monkeys, read-out: time to maximum plasma concentration (Tmax)) of the same compound?
Answer: Its Tmax is 0.25 to 2 h.

Question: And the metabolism by hepatocytes (dog hepatocytes)?
Answer: The metabolism by hepatocytes was “not metabolized”.

Question: What about the tissue distribution ([2]; brain, aorta, inferior vena cava) of the same compound?
Answer: The tissue distribution was “distributed to brain and vascular tissue”.

Question: What about the excretion ([2]; in vivo) of the same compound?
Answer: The excretion was “excreted in urine”.

Question: And the “deaths or SAEs” value ([3]; Part 1 (SAD))?
Answer: The value was “No deaths or SAEs”.

Question: And the “deaths or SAEs” value ([3]; Part 2)?
Answer: Its value is “No deaths or SAEs”.

Question: What about the “TEAEs of Grade 1/mild” value ([3]; both, human, in vivo) of the same compound?
Answer: Its value is 57.1%.

Question: And the “TEAEs of Grade 1 or Grade 2” value ([3]; both, human, in vivo)?
Answer: The value was 92.3%.

Question: And the “TEAEs of Grade 2/moderate” value ([3]; both, human, in vivo)?
Answer: Its value is 42.9%.

Question: And the “TEAEs deemed related to study treatment” value ([3]; both, human, in vivo, 8 days)?
Answer: Its value is 76.9%.

Question: What about the “TEAEs of Grade 1” value ([3]; both, human, in vivo, 8 days) of the same compound?
Answer: Its value is 30.8%.

Question: What about the “TEAEs of Grade 2” value ([3]; both, human, in vivo, 8 days) of the same compound?
Answer: Its value is 61.5%.

Question: And the “subjects who experienced TEAEs” value ([3]; both, human, in vivo, 8 days)?
Answer: Its value is 28.1%.

Question: What about the “CS abnormal findings in laboratory parameters, vital signs, ECGs, physical examination, or cardiac telemetry” value ([3]; in vivo) of the same compound?
Answer: The value was “No CS abnormal findings”.

Question: What about the blood pressure ([3]; in vivo) of the same compound?
Answer: The blood pressure was “reduction of blood pressure”.

Question: And the tolerability ([3]; in vivo, po)?
Answer: The tolerability was “generally well tolerated”.

Question: And the “deaths, SAEs, Grade 4/5 TEAEs” value ([3]; overall)?
Answer: The value was “no deaths, SAEs, or Grade 4/5 TEAEs”.

Question: What about the MTD ([3]; single oral dose, levels between 150 and 250 mg not explored) of the same compound?
Answer: The MTD was 150 mg.

Question: What about the “binding to human alpha1-acid glycoprotein” value [4] of the same compound?
Answer: Its value is “bound”.

Question: What about the “substrate for BCRP” value (BCRP) of the same compound?
Answer: Its value is “not BCRP”.

Question: And the “substrate for P-gp” value (P-gp)?
Answer: The value was “substrate”.

Question: What about the effect on transporter [5] of the same compound?
Answer: The effect on transporter was “no effect”.

Question: What about the IC50 (OAT1) of the same compound?
Answer: The IC50 was 8.54 to 66.2 µM.

Question: And the IC50 (OCT2)?
Answer: The IC50 was 8.54 to 66.2 µM.

Question: And the effect on transporter (P-gp (MDCK2 cells))?
Answer: The effect on transporter was “no effect”.

Question: What about the effect on transporter [6] of the same compound?
Answer: The effect on transporter was “no effect”.

Question: And the IC50 (OAT3)?
Answer: The IC50 was greater than 100 µM.

Question: And the “binding to human serum albumin” value (human serum albumin)?
Answer: Its value is “bound”.
